# Test results as given in publication PMC10914731, “Homo-BacPROTAC-induced degradation of ClpC1 as a strategy against drug-resistant mycobacteria” (Nature Communications, 2024).
# Where “and” joins values, the source holds several entries; their conditions need not be identical. Identical values can stand only once. Like-named read-outs stand apart in the source and are kept apart here.
# Key:
# Acinetobacter baumannii = experiment: MIC ESKAPES panel, Acinetobacter baumannii; assay type: cell-based
# Experimental: (§1) Minimum inhibitory concentration (MIC) against ESKAPES panel of Gram positive and Gram negative pathogens (Enterococcus faecium, Staphylococcus aureus, Klebsiella pneumoniae, Acinetobacter baumannii, Pseudomonas aeruginosa, Enterobacter cloacae and Salmonella typhimurium [ESKAPES panel]) were determined at the FNDR by the standard broth dilution method [CLSI, M100]. […] Mueller Hinton broth (MHB) medium was used to grow ESKAPES panel strains. The individual cultures were added as 200 μL (inoculum of 3–7 × 10^5 cfu/ml) to the respective assay plates in each well to all columns, except the media control (200 μL of medium). […] The assay plates were incubated at 37 °C, and the results were noted on the 2nd day as turbidometric readout. The clear wells indicated inhibition of growth, while the turbid wells indicated uninhibited growth.
# Mtb (moxR) FNDR-M1 = experiment: microbe, parasite or virus in culture; assay type: cell-based
# Mtb H37Rv = experiment: Minimum bactericidal concentration (MBC), Mtb H37Rv; assay type: cell-based, Mycobacterium tuberculosis; conditions: for MBC: Mycobacterium tuberculosis, H37RV
# [1] = target: His6-tagged ClpC1-NTD substrate, M. smegmatis ClpC1P1P2 (UniProt A0R574+P9WPC9); experiment: biochemical; assay type: biochemical; conditions: for % Response / ClpC1-NTD peak area: Figure 4a source data, well replicates
# Chain of His6-tagged ClpC1-NTD substrate, M. smegmatis ClpC1P1P2 (P9WPC9 1-156, looked up, natural form): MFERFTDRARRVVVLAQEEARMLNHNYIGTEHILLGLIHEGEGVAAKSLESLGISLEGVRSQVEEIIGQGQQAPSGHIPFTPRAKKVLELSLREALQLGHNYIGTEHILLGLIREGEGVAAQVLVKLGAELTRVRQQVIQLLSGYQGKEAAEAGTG
# Chain of His6-tagged ClpC1-NTD substrate, M. smegmatis ClpC1P1P2 (A0R574 whole entry): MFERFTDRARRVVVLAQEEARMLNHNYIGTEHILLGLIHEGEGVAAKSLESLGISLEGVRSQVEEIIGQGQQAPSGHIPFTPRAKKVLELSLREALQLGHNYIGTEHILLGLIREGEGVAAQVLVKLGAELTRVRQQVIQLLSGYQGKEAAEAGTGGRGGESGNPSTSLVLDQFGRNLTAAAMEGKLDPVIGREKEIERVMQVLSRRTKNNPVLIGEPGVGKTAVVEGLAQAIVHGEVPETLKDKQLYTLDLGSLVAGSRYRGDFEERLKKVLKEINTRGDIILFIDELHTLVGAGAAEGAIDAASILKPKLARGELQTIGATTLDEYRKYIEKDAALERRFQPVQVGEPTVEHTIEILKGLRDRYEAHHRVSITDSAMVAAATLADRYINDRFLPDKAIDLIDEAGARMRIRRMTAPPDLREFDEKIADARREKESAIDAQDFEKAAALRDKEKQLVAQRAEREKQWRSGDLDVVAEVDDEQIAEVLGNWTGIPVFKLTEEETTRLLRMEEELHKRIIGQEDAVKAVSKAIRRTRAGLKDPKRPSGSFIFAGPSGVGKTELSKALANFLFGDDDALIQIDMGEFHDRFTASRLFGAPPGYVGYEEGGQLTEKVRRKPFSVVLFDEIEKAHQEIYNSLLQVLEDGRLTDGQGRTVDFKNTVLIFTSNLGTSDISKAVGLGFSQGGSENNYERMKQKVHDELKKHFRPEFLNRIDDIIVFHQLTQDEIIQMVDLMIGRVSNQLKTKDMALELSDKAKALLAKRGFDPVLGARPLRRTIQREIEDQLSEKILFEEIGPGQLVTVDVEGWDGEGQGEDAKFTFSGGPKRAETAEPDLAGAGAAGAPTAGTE
# Klebsiella pneumoniae = experiment: MIC ESKAPES panel, Klebsiella pneumoniae; assay type: cell-based
# Experimental: as §1
# Mtb ATCC 35825 = experiment: microbe, parasite or virus in culture; assay type: cell-based
# Mycobacterium abscessus = experiment: microbe, parasite or virus in culture; assay type: cell-based
# in vivo = assay type: in vivo, BALB/cAnNCrl mice
# Experimental: The in-life experimental procedures were conducted in strict compliance with German and European animal welfare legislation in an AAALAC-accredited facility. Male BALB/cAnNCrl mice (Charles River Laboratories Research Models and Services, 97633 Sulzfeld, Germany) were used. Animals were 9 weeks old at dosing with a body weight of 21.6–24.3 g. Animals were delivered free of pathogens according to FELASA recommendations with a health certificate provided by the breeder. Upon receipt, the state of health and sex was checked. Animals acclimatized for at least 5 days before the commencement of the in-life phase. During acclimation, animals were group-housed in individually ventilated cages, on birch wood granulate bedding with species-specific enrichment (nesting material, mouse igloo, gnawing wood). During experimental conduct, animals were housed in conventional cages with elevated grid floors. Grid floor was used to avoid contamination with test item material excreted via urine and feces and subsequent reuptake during fur grooming. No bedding and enrichment were provided except a cage divider, which can be used as a shelter. Animals always had unlimited access to food and water and received a pelleted, total pathogen-free maintenance diet and tap drinking water, sterilized by filter.
# On the day before dosing, test item(s) were suspended in kleptose (20% in WFI) under continuous stirring (3.0 mg/ml). Following 2 min vortexing and 1 h stirring, the formulation was sonicated at 60 °C for 30 min and stirred at ambient temperature overnight. Before dosing, the formulation was vortexed for 2 min followed by ultraturrax treatment for 2 min.
# Male BALB/cAnNCrl mice (n = 3 per test item and administration route) received a bolus dose of the formulated test item(s) (1 mg/kg iv, 30 mg/kg po) at t = 0 h, and whole blood samples were collected subsequently (35 µl at 0.1 (iv) / 0.25 (po), 0.5, 1, 2, 4, 6 h; 600 µl at sacrifice after 24 h). Animals were euthanized by exsanguination in deep isoflurane anesthesia. Whole blood samples were immediately stored on ice at about 4 °C. Plasma was separated by centrifugation at approximately 10,000 × g for 5 m at +4 °C. Centrifugation of each blood sample was started within 10 m after collection. A single aliquot of at least 15 µL of plasma was prepared and immediately stored at −20 ± 5 °C.
# Sample proteins were precipitated with ACN (1 + 12, v/v) containing internal standard, and supernatants analyzed by quantitative UPLC-MS/MS: Phenomenex Luna Omega C18, 2.1 × 50 mm, 1.6 µm, 40 °C, gradient between 10% - 90% ACN with 0.1% formic acid. LogD determination: Lipophilicity of the test items, expressed as chromLogD7.5, was assessed by measuring their chromatographic retention times on C18-material. The chromatographic retention versus logD7.5 values of a series of thirteen n-alkan-2-ones (2-butanone – 2-hexadecanone) served as lipophilicity calibration.
# [2] = Microsomal stability, human; assay type: in vitro ADME
# How it was run: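 Clearance, expressed as % liver blood flow (%Qh), derived by the well-stirred model from first-order half-lives. Depletion monitored by HPLC-MS/MS in acetonitrile-stopped samples over time; 37 °C, NADPH 1 mM, microsomes 0.5 mg/ml, compound 1 µmol/l, Tris-HCl pH 7.5 with MgCl2.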
# Pseudomonas aeruginosa = experiment: MIC ESKAPES panel, Pseudomonas aeruginosa; assay type: cell-based
# Experimental: as §1
# [3] = Gram-Negative Bacteria, replicates 1-3, listed as 8 (UdSBI-0545)
# [4] = single well replicates, listed as 8 (UdSBAI-0545)
# [5] = oral gavage 30 mg/kg, mice, Mean, BLOQ <1.00 nmol/L
compound,measurement,setting,value
COC(c1ccccc1)C1NC(=O)C(C)NC(=O)C(CC(C)CO)N(C)C(=O)C(Cc2cn(Cc3cn(CCOCCOCCOCCOCCn4cc(Cn5cc(CC6NC(=O)C(C(C)C)NC(=O)C(CC(C)C)N(C)C(=O)C(C(C)C)NC(=O)C(C(OC)c7ccccc7)NC(=O)C(C)NC(=O)C(CC(C)CO)N(C)C6=O)c6ccccc65)nn4)nn3)c3ccccc23)NC(=O)C(C(C)C)NC(=O)C(CC(C)C)N(C)C(=O)C(C(C)C)NC1=O (stereo not drawn) [Compound 8],MIC,"Acinetobacter baumannii; Gram negative, n = 3 well replicates, read-out: MIC Acinetobacter baumanii",> 50 µM
same,MIC,"Acinetobacter baumannii; Gram-Negative Bacteria, replicates 1-3, read-out: MIC Acinetobacter baumannii",> 50 µM and > 109 µg/mL
same,MIC,"Mtb (moxR) FNDR-M1; M. tuberculosis FNDR-M1, single well replicates",0.195 µM
same,MIC,"Mtb (moxR) FNDR-M1; Mycobacterium tuberculosis, M. tuberculosis FNDR-M1, single well replicates",0.195 µM
same,MIC,"Mtb (moxR) FNDR-M1; Mycobacterium tuberculosis, Mtb (moxR) FNDR-M1, mean ± SD, n = 3 well replicates",0.2 µM
same,colony growth after replating (MBC assay),"Mtb H37Rv; Mtb H37Rv, result in words",did not form any colonies at concentrations at or above the MIC value
same,MBC,Mtb H37Rv; read-out: MBC (from Set 3) Mtb H37Rv,0.22 µg/mL and 0.1 µM
same,MBC,"Mtb H37Rv; individual example, read-out: MBC Mtb H37Rv",0.1 µM and 0.2 µg/mL
same,DC50,"[1]; Msm, Measurement 1-6, read-out: DC50, single measurements",9 µM and 8.5 µM and 6 µM and 8.1 µM and 8.2 µM
same,DC50,"[1]; cell-free degradation of ClpC1-NTD, 90 min, read-out: DC50 M.smegmatis ClpC1P1P2 Mean",8 µM
same,% Response,[1]; conc. 0.4 µM,120.356% and 117.751% and 102.838% and 93.7015% and 104.532% and 103.754% and 118.347% and 117.353% and 124.609%
same,ClpC1-NTD peak area,[1]; conc. 0.4 µM,613438 and 713203 and 1462174 and 1713249 and 1751036 and 1183458 and 1105910 and 1047700 and 547599
same,% Response,[1]; conc. 33.3 µM,25.9293% and 29.5058% and 21.1338% and 16.911% and 37.0492% and 22.8094% and 15.8145% and 16.4069% and 19.2475%
same,ClpC1-NTD peak area,[1]; conc. 33.3 µM,245614 and 155160 and 213594 and 218458 and 306322 and 219308 and 255600 and 176271 and 124945
same,% Response,[1]; conc. 100.0 µM,31.4886% and 23.4001% and 28.8941% and 17.4698% and 14.335% and 19.5877% and 11.6161% and 9.907% and 14.2139%
same,ClpC1-NTD peak area,[1]; conc. 100.0 µM,99143.4 and 153042 and 198962 and 150433 and 187091 and 243688 and 174896 and 223232 and 140724
same,MIC,Klebsiella pneumoniae; [3],>50 µM
same,MIC,"Klebsiella pneumoniae; Klebsiella pneumoniae, Gram negative, n = 3 well replicates",> 50 µM
same,MIC,"Klebsiella pneumoniae; Klebsiella pneumoniae, Gram-Negative Bacteria, replicates 1-3",> 109 µg/mL
same,MIC,"Mtb ATCC 35825; Mycobacterium tuberculosis, ATCC35825, mean, n = 2 well replicates",< 0.1 µM and < 0.2 µg/mL
same,MIC,"Mtb ATCC 35825; Mycobacterium tuberculosis, ATCC35825, single well replicates",< 0.21 µg/mL and < 0.1 µM
same,MIC,Mtb ATCC 35825; [4],<0.1 µM
same,MIC Mtb ATCC 35825,Mtb ATCC 35825; [4],<0.21 µg/mL
same,MIC (µg/ml) Mycobacterium abscessus,"Mycobacterium abscessus; Experiment 2, three replicate columns",>108.53 µg/mL
same,MIC,"Mycobacterium abscessus; Experiment 2, three replicate columns, read-out: MIC (µM) Mycobacterium abscessus",>50 µM
same,MIC,"Mycobacterium abscessus; Mycobacteroides abscessus, Experiment 1, read-out: MIC Mycobacterium abscessus",> 50 µM and > 109 µg/mL
same,MIC,"Mycobacterium abscessus; Mycobacteroides abscessus, Experiment 2, three replicate columns, read-out: MIC (µM) Mycobacterium abscessus",> 50 µM
same,MIC,"Mycobacterium abscessus; Mycobacteroides abscessus, Experiment 2, three replicate columns, read-out: MIC (µg/ml) Mycobacterium abscessus",> 109 µg/mL
same,MIC,"Mycobacterium abscessus; Mycobacteroides abscessus, mean ± SD, read-out: MIC Mycobacterium abscessus",> 50 µM
same,Plasma concentration 0.5 h,in vivo; [5],19.4 nM
same,Plasma concentration 1 h,in vivo; [5],18.1 nM
same,Plasma concentration 2 h,in vivo; [5],26.0 nM
same,Plasma concentration 4 h,in vivo; [5],31.8 nM
same,Plasma concentration 6 h,in vivo; [5],32.5 nM
same,Plasma concentration 24 h,in vivo; [5],96.7 nM
same,Plasma concentration […],in vivo; [5],25.7 nM
same,Plasma concentration 24 h,"in vivo; oral gavage, individual animals 1-3, BLOQ <1.00 nmol/L, listed as 8 (UdSBI-0545)",101 nM and 92.4 nM
same,Cmax/Dose,"in vivo; oral gavage, mice, Mean",10.4 nM/nmol/kg
same,tmax,"in vivo; oral gavage, mice, Mean",24.0 h
same,AUC0-t/Dose,"in vivo; oral gavage, mice, Mean (compound 6: maximum potential value with 1 nM for each time point)",165 h*nM/nmol/kg
same,Microsomal Stability Human QH,[2]; Human,>88.4 >88.4 >88.4%
same,Microsomal Stability Human,[2]; clearance in microsomes,> 88 %Qh
same,MIC,Pseudomonas aeruginosa; [3],>50 µM
same,MIC,"Pseudomonas aeruginosa; Pseudomonas aeruginosa, Gram negative, n = 3 well replicates",> 50 µM
same,MIC,"Pseudomonas aeruginosa; Pseudomonas aeruginosa, Gram-Negative Bacteria, replicates 1-3",> 109 µg/mL
